From ChEMBL document CHEMBL4673372, “1,2,3-triazole-thiazole hybrids: Synthesis, in vitro antimicrobial activity and antibiofilm studies” (Bioorg Med Chem Lett, 2021)
Values after ≈ are worked out from the molar mass of the structure shown.

Test system: Candida albicans
Assay: Antifungal activity against Candida albicans MTCC 854
Assay type: functional
Conditions: not given

**Q.** With `COc1ccc(-n2cc(COc3ccc(/C=N/Nc4nc(-c5cc6cc(Br)cc(OC)c6oc5=O)cs4)cc3)nn2)cc1` as the molecule, how does the MIC read?
**A.** Its MIC is > 190 µM.

Test system: Nakaseomyces glabratus
Assay: Fungicidal activity against Candida glabrata MTCC 3019
Assay type: functional
Conditions: not given

**Q.** For `COc1ccc(-n2cc(COc3ccc(/C=N/Nc4nc(-c5cc6cc(Br)cc(OC)c6oc5=O)cs4)cc3)nn2)cc1`, which MFC is on record?
**A.** The MFC was 11.8 µM (≈ 7.78 µg/mL).

Test system: [Candida] aaseri
Assay: Fungicidal activity against Candida aaseri MTCC 1962
Assay type: functional
Conditions: Yamadazyma aaseri

**Q.** For `COc1ccc(-n2cc(COc3ccc(/C=N/Nc4nc(-c5cc6cc(Br)cc(OC)c6oc5=O)cs4)cc3)nn2)cc1`, which MFC is on record?
**A.** The MFC was 11.8 µM (≈ 7.78 µg/mL).

Test system: Candida albicans
Assay: Fungicidal activity against Candida albicans MTCC 1637
Assay type: functional
Conditions: not given

**Q.** `COc1ccc(-n2cc(COc3ccc(/C=N/Nc4nc(-c5cc6cc(Br)cc(OC)c6oc5=O)cs4)cc3)nn2)cc1` was tested. Which MFC did it give?
**A.** The MFC was 11.8 µM (≈ 7.78 µg/mL).

Test system: Candida albicans
Assay: Fungicidal activity against Candida albicans MTCC 3018
Assay type: functional
Conditions: not given

**Q.** How did the MFC turn out when `COc1ccc(-n2cc(COc3ccc(/C=N/Nc4nc(-c5cc6cc(Br)cc(OC)c6oc5=O)cs4)cc3)nn2)cc1` was run?
**A.** The MFC was 11.8 µM (≈ 7.78 µg/mL).

Test system: Candida albicans
Assay: Fungicidal activity against Candida albicans MTCC 183
Assay type: functional
Conditions: not given

**Q.** With `COc1ccc(-n2cc(COc3ccc(/C=N/Nc4nc(-c5cc6cc(Br)cc(OC)c6oc5=O)cs4)cc3)nn2)cc1` as the molecule, how does the MFC read?
**A.** The MFC was 23.7 µM (≈ 15.6 µg/mL).

Test system: Pseudomonas aeruginosa
Assay: Bactericidal activity against Pseudomonas aeruginosa MTCC 2453
Assay type: functional
Conditions: not given

**Q.** How did the MBC turn out when `COc1ccc(-n2cc(COc3ccc(/C=N/Nc4nc(-c5cc6cc(Br)cc(OC)c6oc5=O)cs4)cc3)nn2)cc1` was run?
**A.** The MBC was 11.8 µM (≈ 7.78 µg/mL).

Test system: Raoultella planticola
Assay: Bactericidal activity against Klebsiella planticola MTCC 530
Assay type: functional
Conditions: not given

**Q.** Which MBC does the source give for `COc1ccc(-n2cc(COc3ccc(/C=N/Nc4nc(-c5cc6cc(Br)cc(OC)c6oc5=O)cs4)cc3)nn2)cc1` here?
**A.** The MBC was 5.9 µM (≈ 3.89 µg/mL).

Test system: Escherichia coli
Assay: Bactericidal activity against Escherichia coli MTCC 739
Assay type: functional
Conditions: not given

**Q.** How did the MBC turn out when `COc1ccc(-n2cc(COc3ccc(/C=N/Nc4nc(-c5cc6cc(Br)cc(OC)c6oc5=O)cs4)cc3)nn2)cc1` was run?
**A.** The MBC was 11.8 µM (≈ 7.78 µg/mL).

Test system: Micrococcus luteus
Assay: Bactericidal activity against Micrococcus luteus MTCC 2470
Assay type: functional
Conditions: not given

**Q.** `COc1ccc(-n2cc(COc3ccc(/C=N/Nc4nc(-c5cc6cc(Br)cc(OC)c6oc5=O)cs4)cc3)nn2)cc1` was tested. Which MBC did it give?
**A.** The MBC was 11.8 µM (≈ 7.78 µg/mL).

Test system: Bacillus subtilis
Assay: Bactericidal activity against Bacillus subtilis MTCC 121
Assay type: functional
Conditions: not given

**Q.** For `COc1ccc(-n2cc(COc3ccc(/C=N/Nc4nc(-c5cc6cc(Br)cc(OC)c6oc5=O)cs4)cc3)nn2)cc1`, which MBC is on record?
**A.** The MBC was 11.8 µM (≈ 7.78 µg/mL).

Test system: Staphylococcus aureus
Assay: Bactericidal activity against Staphylococcus aureus MLS16 MTCC 2940
Assay type: functional
Conditions: not given

**Q.** `COc1ccc(-n2cc(COc3ccc(/C=N/Nc4nc(-c5cc6cc(Br)cc(OC)c6oc5=O)cs4)cc3)nn2)cc1` was tested. Which MBC did it give?
**A.** The MBC was 11.8 µM (≈ 7.78 µg/mL).

Test system: Staphylococcus aureus
Assay: Bactericidal activity against Staphylococcus aureus MTCC 96
Assay type: functional
Conditions: not given

**Q.** `COc1ccc(-n2cc(COc3ccc(/C=N/Nc4nc(-c5cc6cc(Br)cc(OC)c6oc5=O)cs4)cc3)nn2)cc1` was tested. Which MBC did it give?
**A.** Its MBC is 11.8 µM (≈ 7.78 µg/mL).

Test system: Candida albicans
Assay: Antifungal activity against Candida albicans MTCC 227
Assay type: functional
Conditions: not given

**Q.** For `COc1ccc(-n2cc(COc3ccc(/C=N/Nc4nc(-c5cc6cc(Br)cc(OC)c6oc5=O)cs4)cc3)nn2)cc1`, which MIC is on record?
**A.** Its MIC is > 190 µM.

Test system: Candida albicans
Assay: Antifungal activity against Candida albicans MTCC 183
Assay type: functional
Conditions: not given

**Q.** Which MIC does the source give for `COc1ccc(-n2cc(COc3ccc(/C=N/Nc4nc(-c5cc6cc(Br)cc(OC)c6oc5=O)cs4)cc3)nn2)cc1` here?
**A.** The MIC was 11.8 µM (≈ 7.78 µg/mL).

Test system: Pseudomonas aeruginosa
Assay: Antibacterial activity against Pseudomonas aeruginosa MTCC 2453 assessed as inhibition of bacterial growth by microtiter broth dilution method
Assay type: functional
Conditions: not given

**Q.** How did the MIC turn out when `COc1ccc(-n2cc(COc3ccc(/C=N/Nc4nc(-c5cc6cc(Br)cc(OC)c6oc5=O)cs4)cc3)nn2)cc1` was run?
**A.** The MIC was 5.9 µM (≈ 3.89 µg/mL).

Test system: Escherichia coli
Assay: Antibacterial activity against Escherichia coli MTCC 739 assessed as inhibition of bacterial growth by microtiter broth dilution method
Assay type: functional
Conditions: not given

**Q.** How did the MIC turn out when `COc1ccc(-n2cc(COc3ccc(/C=N/Nc4nc(-c5cc6cc(Br)cc(OC)c6oc5=O)cs4)cc3)nn2)cc1` was run?
**A.** Its MIC is 5.9 µM (≈ 3.89 µg/mL).

Test system: Raoultella planticola
Assay: Antibacterial activity against Klebsiella planticola MTCC 530 assessed as inhibition of bacterial growth by microtiter broth dilution method
Assay type: functional
Conditions: not given

**Q.** How did the MIC turn out when `COc1ccc(-n2cc(COc3ccc(/C=N/Nc4nc(-c5cc6cc(Br)cc(OC)c6oc5=O)cs4)cc3)nn2)cc1` was run?
**A.** Its MIC is 2.8 µM (≈ 1.85 µg/mL).

Test system: Micrococcus luteus
Assay: Antibacterial activity against Micrococcus luteus MTCC 2470 assessed as inhibition of bacterial growth by microtiter broth dilution method
Assay type: functional
Conditions: not given

**Q.** `COc1ccc(-n2cc(COc3ccc(/C=N/Nc4nc(-c5cc6cc(Br)cc(OC)c6oc5=O)cs4)cc3)nn2)cc1` was tested. Which MIC did it give?
**A.** The MIC was 5.9 µM (≈ 3.89 µg/mL).

Test system: Bacillus subtilis
Assay: Antibacterial activity against Bacillus subtilis MTCC 121 assessed as inhibition of bacterial growth by microtiter broth dilution method
Assay type: functional
Conditions: not given

**Q.** For `COc1ccc(-n2cc(COc3ccc(/C=N/Nc4nc(-c5cc6cc(Br)cc(OC)c6oc5=O)cs4)cc3)nn2)cc1`, which MIC is on record?
**A.** The MIC was 5.9 µM (≈ 3.89 µg/mL).

Test system: Staphylococcus aureus
Assay: Antibacterial activity against Staphylococcus aureus MLS16 MTCC 2940 assessed as inhibition of bacterial growth by microtiter broth dilution method
Assay type: functional
Conditions: not given

**Q.** Which MIC does the source give for `COc1ccc(-n2cc(COc3ccc(/C=N/Nc4nc(-c5cc6cc(Br)cc(OC)c6oc5=O)cs4)cc3)nn2)cc1` here?
**A.** The MIC was 5.9 µM (≈ 3.89 µg/mL).

Test system: Staphylococcus aureus
Assay: Antibacterial activity against Staphylococcus aureus MTCC 96 assessed as inhibition of bacterial growth by microtiter broth dilution method
Assay type: functional
Conditions: not given

**Q.** `COc1ccc(-n2cc(COc3ccc(/C=N/Nc4nc(-c5cc6cc(Br)cc(OC)c6oc5=O)cs4)cc3)nn2)cc1` was tested. Which MIC did it give?
**A.** Its MIC is 5.9 µM (≈ 3.89 µg/mL).
